In the experiment the target is T1, ΔF508-CFTR (Homo sapiens, UniProt P13569, DEL508-508).
T1 construct: expressed in transfected cells
In words: Membrane potential optical assay (FRET voltage-sensor dyes, VIPR), identification of potentiator compounds. In kind it is cell-based. The note with it: Table 3, assay not given; for Emax: read-out: % Activity (% Efficacy, relative efficacy). A digest of the protocol:
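Potentiator screen measured membrane potential via FRET between CC2-DMPE donor and DiSBAC2(3), read on VIPR II. Compound went in with the first addition of chloride-free gluconate bath; cells were ΔF508-CFTR-expressing NIH3T3 mouse fibroblasts, temperature-corrected at 27 °C for 24 h.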

The structures appear in SMILES notation. pEC50: −log10 of the molar value. A value given as a limit tells only on which side of the number the result lay.

In general, pEC50 refers to the EC50 on a negative log10 scale, so that one unit is a factor of ten.

T1 sequence (P13569 with tags, fused parts or gaps DEL508-508): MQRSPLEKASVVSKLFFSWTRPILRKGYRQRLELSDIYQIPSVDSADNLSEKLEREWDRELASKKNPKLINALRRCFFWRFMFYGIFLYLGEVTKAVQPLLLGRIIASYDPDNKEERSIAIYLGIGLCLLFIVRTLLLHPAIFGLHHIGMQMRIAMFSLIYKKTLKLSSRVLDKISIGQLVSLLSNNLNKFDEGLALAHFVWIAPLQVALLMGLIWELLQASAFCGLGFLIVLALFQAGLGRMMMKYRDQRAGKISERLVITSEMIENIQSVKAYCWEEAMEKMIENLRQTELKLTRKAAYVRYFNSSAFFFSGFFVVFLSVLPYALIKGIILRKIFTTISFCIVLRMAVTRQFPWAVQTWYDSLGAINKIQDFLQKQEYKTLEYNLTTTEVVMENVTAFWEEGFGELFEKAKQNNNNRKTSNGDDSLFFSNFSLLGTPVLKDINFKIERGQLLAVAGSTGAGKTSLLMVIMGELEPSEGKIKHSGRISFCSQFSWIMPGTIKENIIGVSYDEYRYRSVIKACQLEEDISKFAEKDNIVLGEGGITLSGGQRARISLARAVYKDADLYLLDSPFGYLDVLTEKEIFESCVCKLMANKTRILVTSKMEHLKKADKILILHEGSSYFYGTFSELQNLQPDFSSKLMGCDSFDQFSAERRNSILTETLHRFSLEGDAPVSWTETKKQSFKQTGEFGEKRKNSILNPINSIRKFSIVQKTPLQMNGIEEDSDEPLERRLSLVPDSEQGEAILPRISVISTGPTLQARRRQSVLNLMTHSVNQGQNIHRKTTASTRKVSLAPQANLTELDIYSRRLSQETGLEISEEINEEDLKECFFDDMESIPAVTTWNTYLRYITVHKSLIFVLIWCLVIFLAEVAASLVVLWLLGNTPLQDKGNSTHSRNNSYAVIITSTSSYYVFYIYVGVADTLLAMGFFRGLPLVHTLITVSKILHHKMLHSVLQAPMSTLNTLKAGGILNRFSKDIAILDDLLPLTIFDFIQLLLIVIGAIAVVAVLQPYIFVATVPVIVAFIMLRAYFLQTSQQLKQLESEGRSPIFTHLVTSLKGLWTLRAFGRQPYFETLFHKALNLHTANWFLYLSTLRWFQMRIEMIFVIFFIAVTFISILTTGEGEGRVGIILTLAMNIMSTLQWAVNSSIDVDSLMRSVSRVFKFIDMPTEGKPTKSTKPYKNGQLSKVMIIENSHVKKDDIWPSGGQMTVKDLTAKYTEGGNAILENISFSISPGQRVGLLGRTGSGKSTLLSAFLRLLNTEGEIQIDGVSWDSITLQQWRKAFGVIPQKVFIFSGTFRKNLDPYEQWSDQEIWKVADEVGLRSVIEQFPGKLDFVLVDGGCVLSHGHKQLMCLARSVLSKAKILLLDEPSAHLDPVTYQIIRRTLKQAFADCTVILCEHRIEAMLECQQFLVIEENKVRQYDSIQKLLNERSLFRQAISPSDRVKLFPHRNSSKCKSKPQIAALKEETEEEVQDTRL

For `O=C(Nc1ccc(F)cc1)c1c[nH]c2ccccc2c1=O` [Compound 198, N-(4-fluorophenyl)-4-oxo-1H-quinoline-3-carboxamide], the Emax lay within 25 to 100%.

In the case of `Cc1ccccc1-c1ccccc1NC(=O)c1c[nH]c2ccccc2c1=O` [Compound 199, N-[2-(o-tolyl)phenyl]-4-oxo-1H-quinoline-3-carboxamide], the Emax lay within 25 to 100%.

As for `O=C(Nc1ccc2c(c1)C(O)CCC2)c1c[nH]c2ccccc2c1=O` (stereo not drawn) [Compound 200, 1,4-dihydro-N-(1,2,3,4-tetrahydro-1-hydroxynaphthalen-7-yl)-4-oxoquinoline-3-carboxamide], the Emax lay in the range of 25 to 100%.

Turning to `Cc1cccc(NC(=O)c2c[nH]c3ccccc3c2=O)c1C#N` [Compound 201, N-(2-cyano-3-methyl-phenyl)-4-oxo-1H-quinoline-3-carboxamide], the Emax was less than 25%.

Take `COc1ccc(Cl)cc1-c1ccccc1NC(=O)c1c[nH]c2ccccc2c1=O` [Compound 202, N-[2-(5-chloro-2-methoxy-phenyl)phenyl]-4-oxo-1H-quinoline-3-carboxamide]: the Emax fell in the range of 25 to 100%.

For the compound `O=C(Nc1ccc2ccn(Cc3ccccc3)c2c1)c1c[nH]c2ccccc2c1=O` [Compound 203, N-(1-benzyl-1H-indol-6-yl)-4-oxo-1H-quinoline-3-carboxamide], the Emax lay in the range of 25 to 100%.

In the case of `CC1(C)CCOc2cc(NC(=O)c3c[nH]c4ccccc4c3=O)ccc21` [Compound 204, N-(4,4-dimethylchroman-7-yl)-4-oxo-1H-quinoline-3-carboxamide], the Emax lay within 25 to 100%.

Consider `COc1ccc(Oc2ccc(C(F)(F)F)cc2NC(=O)c2c[nH]c3ccccc3c2=O)cc1` [Compound 205, N-[2-(4-methoxyphenoxy)-5-(trifluoromethyl)phenyl]-4-oxo-1H-quinoline-3-carboxamide], for which the Emax lay within 25 to 100%.

As for `Cc1cccc(Oc2ncccc2NC(=O)c2c[nH]c3ccccc3c2=O)c1C` [Compound 206, N-[2-(2,3-dimethylphenoxy)-3-pyridyl]-4-oxo-1H-quinoline-3-carboxamide], the Emax was in the range of 25 to 100%.

In the case of `CCOC(=O)Cc1c[nH]c2cc(NC(=O)c3c[nH]c4ccccc4c3=O)ccc12` [Compound 207, 2-[6-[(4-oxo-1H-quinolin-3-yl)carbonylamino]-1H-indol-3-yl]acetic acid ethyl ester], the Emax was 25 to 100%.

Consider `Cc1cc(C2C3CC4CC(C3)CC2C4)c(O)cc1NC(=O)c1c[nH]c2ccccc2c1=O` (stereo not drawn) [Compound 208, N-[4-(2-adamantyl)-5-hydroxy-2-methyl-phenyl]-4-oxo-1H-quinoline-3-carboxamide], for which the Emax is 25 to 100%.

In the case of `O=C(Nc1ccc(CO)cc1)c1c[nH]c2ccccc2c1=O` [Compound 209, N-[4-(hydroxymethyl)phenyl]-4-oxo-1H-quinoline-3-carboxamide], the Emax lay within 25 to 100%.

Take `COc1nc2ccccc2c(OC)c1C(=O)Nc1ccccc1-c1ccccc1` [Compound 210, 2,4-dimethoxy-N-(2-phenylphenyl)-quinoline-3-carboxamide]: the Emax lay in the range of 25 to 100%.

Consider `COc1ccc(C(C)(C)C)cc1NC(=O)c1c[nH]c2ccccc2c1=O` [Compound 211, N-(2-methoxy-5-tert-butyl-phenyl)-4-oxo-1H-quinoline-3-carboxamide], for which the Emax lay in the range of 25 to 100%.

On to `CC1=NN(c2cccc(NC(=O)c3c[nH]c4ccccc4c3=O)c2)C(=O)C1` [Compound 212, N-[3-(3-methyl-5-oxo-1,4-dihydropyrazol-1-yl)phenyl]-4-oxo-1H-quinoline-3-carboxamide], for which the Emax was less than 25%.

Consider `O=C(Nc1ccccc1-c1cc(Cl)ccc1Cl)c1c[nH]c2ccccc2c1=O` [Compound 213, N-[2-(2,5-dichlorophenyl)phenyl]-4-oxo-1H-quinoline-3-carboxamide], for which the Emax was in the range of 25 to 100%.

`CS(=O)(=O)Nc1cccc(NC(=O)c2c[nH]c3ccccc3c2=O)c1` [Compound 214, N-(3-methylsulfonylaminophenyl)-4-oxo-1H-quinoline-3-carboxamide]: the negative-log EC50 (pEC50) was 4.60 to 5.00 and the Emax lay within 25 to 100%.

As to `O=C(Nc1ccccc1)c1c[nH]c2ccccc2c1=O` [Compound 215, 4-Oxo-N-phenyl-1H-quinoline-3-carboxamide], the Emax is 25 to 100%.

On to `O=C(Nc1nc2ccccc2[nH]1)c1c[nH]c2ccccc2c1=O` [Compound 216, N-(3H-benzoimidazol-2-yl)-4-oxo-1H-quinoline-3-carboxamide], for which the Emax was less than 25%.

On to `O=C(Nc1ccc2[nH]ncc2c1)c1c[nH]c2ccccc2c1=O` [Compound 217, N-(1H-indazol-5-yl)-4-oxo-1H-quinoline-3-carboxamide], for which the Emax was 25 to 100%.

`CC1(c2cc(F)c(NC(=O)c3c[nH]c4ccc(F)cc4c3=O)cc2O)CCCCC1` [Compound 218, 6-fluoro-N-[2-fluoro-5-hydroxy-4-(1-methylcyclohexyl)-phenyl]-4-oxo-1H-quinoline-3-carboxamide]: the Emax lay in the range of 25 to 100%.

For the compound `O=C(Nc1cnccn1)c1c[nH]c2ccccc2c1=O` [Compound 219, 4-oxo-N-pyrazin-2-yl-1H-quinoline-3-carboxamide], the Emax was less than 25%.

Turning to `CC(C)(C)c1cc(C(C)(C)C)c(NC(=O)c2c[nH]c3ccccc3c2=O)c(O)c1O` [Compound 220, N-(2,3-dihydroxy-4,6-ditert-butyl-phenyl)-4-oxo-1H-quinoline-3-carboxamide], the Emax was in the range of 25 to 100%.

Regarding `CCCc1ccc(NC(=O)c2c[nH]c3ccccc3c2=O)cc1NC(=O)OC` [Compound 221, [5-[(4-oxo-1H-quinolin-3-yl)carbonylamino]-2-propyl-phenyl]aminoformic acid methyl ester], the Emax was 25 to 100%.

On to `N#Cc1c(Cl)cccc1NC(=O)c1c[nH]c2ccccc2c1=O` [Compound 222, N-(3-chloro-2-cyano-phenyl)-4-oxo-1H-quinoline-3-carboxamide], for which the Emax was in the range of 25 to 100%.

For the compound `CSc1ccc(-c2ccccc2NC(=O)c2c[nH]c3ccccc3c2=O)cc1` [Compound 223, N-[2-(4-methylsulfanylphenyl)phenyl]-4-oxo-1H-quinoline-3-carboxamide], the Emax lay within 25 to 100%.

Consider `O=C(Nc1ccc(-c2ccccc2CNC(=O)C(F)(F)F)cc1)c1c[nH]c2ccccc2c1=O` [Compound 224, 4-oxo-N-[4-[2-[(2,2,2-trifluoroacetyl)aminomethyl]phenyl]phenyl]-1H-quinoline-3-carboxamide], for which the Emax was 25 to 100%.

As to `CCOC(=O)Nc1cc(NC(=O)c2c[nH]c3ccccc3c2=O)ccc1C(C)C` [Compound 225, [2-isopropyl-5-[(4-oxo-1H-quinolin-3-yl)carbonylamino]phenyl]aminoformic acid ethyl ester], the Emax is 25 to 100%.

For the compound `CCCc1ccc(NC(=O)c2c[nH]c3ccccc3c2=O)cc1` [Compound 226, 4-oxo-N-(4-propylphenyl)-1H-quinoline-3-carboxamide], the negative logarithm of the EC50 (pEC50) is more than 5.00 and the Emax was 25 to 100%.

In the case of `O=C(Nc1ccccc1-c1nc2ccccc2[nH]1)c1c[nH]c2ccccc2c1=O` [Compound 227, N-[2-(3H-benzoimidazol-2-yl)phenyl]-4-oxo-1H-quinoline-3-carboxamide], the Emax is less than 25%.

Consider `O=C(Nc1ccccc1C(O)c1ccccc1)c1c[nH]c2ccccc2c1=O` (stereo not drawn) [Compound 228, N-[2-(hydroxy-phenyl-methyl)phenyl]-4-oxo-1H-quinoline-3-carboxamide], for which the Emax was 25 to 100%.

Consider `CSc1ccccc1NC(=O)c1c[nH]c2ccccc2c1=O` [Compound 229, N-(2-methylsulfanylphenyl)-4-oxo-1H-quinoline-3-carboxamide], for which the Emax was in the range of 25 to 100%.

In the case of `Cc1cc2cc(NC(=O)c3c[nH]c4ccccc4c3=O)ccc2[nH]1` [Compound 230, N-(2-methyl-1H-indol-5-yl)-4-oxo-1H-quinoline-3-carboxamide], the Emax is 25 to 100%.

As for `COC(=O)c1cccc(-c2cc(C(C)(C)C)c(O)cc2NC(=O)c2c[nH]c3ccccc3c2=O)c1` [Compound 231, 3-[4-hydroxy-2-[(4-oxo-1H-quinolin-3-yl)carbonylamino]-5-tert-butyl-phenyl]benzoic acid methyl ester], the Emax lay within 25 to 100%.

Turning to `CCCc1ccc(NC(C)=O)cc1NC(=O)c1c[nH]c2ccccc2c1=O` [Compound 232, N-(5-acetylamino-2-propyl-phenyl)-4-oxo-1H-quinoline-3-carboxamide], the negative-log EC50 (pEC50) is 4.60 to 5.00 and the Emax was 25 to 100%.

With `CC(=O)N1CCc2ccc(NC(=O)c3c[nH]c4ccccc4c3=O)cc21` [Compound 233, N-(1-acetylindolin-6-yl)-4-oxo-1H-quinoline-3-carboxamide], the Emax is less than 25%.

`O=C(Nc1cc2[nH]ccc2cc1C(F)(F)F)c1c[nH]c2ccccc2c1=O` [Compound 234, 4-oxo-N-[5-(trifluoromethyl)-1H-indol-6-yl]-1H-quinoline-3-carboxamide]: the Emax lay within 25 to 100%.

Take `CC(C)c1ccc(NC(=O)c2c[nH]c3ccccc3c2=O)cn1` [Compound 235, N-(6-isopropyl-3-pyridyl)-4-oxo-1H-quinoline-3-carboxamide]: the Emax lay in the range of 25 to 100%.

On to `O=C(Nc1ccc(C(F)(F)F)cc1)c1c[nH]c2ccccc2c1=O` [Compound 236, 4-oxo-N-[4-(trifluoromethyl)phenyl]-1H-quinoline-3-carboxamide], for which the Emax fell in the range of 25 to 100%.

Consider `COc1ccccc1-c1cc2cc[nH]c2cc1NC(=O)c1c[nH]c2ccccc2c1=O` [Compound 237, N-[5-(2-methoxyphenyl)-1H-indol-6-yl]-4-oxo-1H-quinoline-3-carboxamide], for which the negative logarithm of the EC50 (pEC50) was more than 5.00 and the Emax was 25 to 100%.

As to `CC(C)(C)OC(=O)N1CCC2(CCNc3cc(NC(=O)c4c[nH]c5ccccc5c4=O)ccc32)CC1` [Compound 238, 7′-[(4-oxo-1H-quinolin-3-ylcarbonyl)amino]-spiro[piperidine-4,4′(1′H)-quinoline], 2′,3′-dihydro-carboxylic acid tert-butyl ester], the Emax lay within 25 to 100%.
